Results as given in the supplement of paper PMC10307832.

Columns and labels:
Experiment in all cases: relative viability (nuclei count vs DMSO), 5 days (fraction); higher = more cells survive
[1] = compound: CC1=CN=C(N=C1C2=CNC(=C2)C(=O)N[C@H](CO)C3=CC(=CC=C3)Cl)NC4=C(C=C(C=C4)F)Cl [VX-11e] + Cc1nc(Nc2ncc(C(=O)Nc3c(C)cccc3Cl)s2)cc(N2CCN(CCO)CC2)n1 [Dasatinib] (partner 0.075 µM)
How it was run: (§1)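 Lung cancer cell lines were seeded in 1536-well plates and dosed by pin tool the next day, with either a single drug or a fixed anchor-drug dose combined with five library-drug doses (not always all listed) spaced in √10 steps. Five days later, one step fixed the cells and stained their nuclei (final 0.05% Triton X-100, 1% formaldehyde, 1 ug/ml Hoechst), and nuclei were counted on 4× images. Relative viability is the nuclei count in treated wells divided by the count in vehicle wells, and each value is the median of duplicate plates.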

[2] = compound: CC1=CN=C(N=C1C2=CNC(=C2)C(=O)N[C@H](CO)C3=CC(=CC=C3)Cl)NC4=C(C=C(C=C4)F)Cl [VX-11e] + Cc1cc(Nc2cc(N3CCN(C)CC3)nc(Sc3ccc(NC(=O)C4CC4)cc3)n2)n[nH]1 [Tozasertib] (partner 0.1 µM)
How it was run: as §1

[3] = compound: CC1=CN=C(N=C1C2=CNC(=C2)C(=O)N[C@H](CO)C3=CC(=CC=C3)Cl)NC4=C(C=C(C=C4)F)Cl [VX-11e] + Cc1nc(NC(=O)N2CCC[C@H]2C(N)=O)sc1-c1ccnc(C(C)(C)C(F)(F)F)c1 [Alpelisib] (partner 2 µM)
How it was run: as §1

[4] = compound: CC1=CN=C(N=C1C2=CNC(=C2)C(=O)N[C@H](CO)C3=CC(=CC=C3)Cl)NC4=C(C=C(C=C4)F)Cl [VX-11e] + CCNC(=O)c1noc(-c2cc(C(C)C)c(O)cc2O)c1-c1ccc(CN2CCOCC2)cc1 [Luminespib] (partner 0.01 µM)
How it was run: as §1

Row | Cell Line | relative viability ([1]; first compound 0.04 µM) | relative viability ([1]; first compound 0.1265 µM) | relative viability ([1]; first compound 1.265 µM) | relative viability ([1]; first compound 4 µM) | relative viability ([2]; first compound 0.04 µM) | relative viability ([2]; first compound 0.1265 µM) | relative viability ([2]; first compound 1.265 µM) | relative viability ([2]; first compound 4 µM) | relative viability ([3]; first compound 0.04 µM) | relative viability ([3]; first compound 0.1265 µM) | relative viability ([3]; first compound 1.265 µM) | relative viability ([3]; first compound 4 µM) | relative viability ([1]; first compound 0.4 µM) | relative viability ([2]; first compound 0.4 µM) | relative viability ([3]; first compound 0.4 µM) | relative viability ([4]; first compound 0.04 µM) | relative viability ([4]; first compound 0.1265 µM) | relative viability ([4]; first compound 0.4 µM) | relative viability ([4]; first compound 1.265 µM) | relative viability ([4]; first compound 4 µM)
1 | HCC-366 | 0.736 | 0.612 | 0.434 | 0.241 | 0.12 | 0.0759 | 0.0517 | 0.0473 | 0.446 | 0.431 | 0.239 | 0.0901 | – | – | – | – | – | – | – | –
2 | HCC-827 | 0.297 | 0.292 | 0.406 | 0.246 | 0.396 | 0.401 | 0.401 | 0.347 | 1.02 | 1.06 | 1.16 | 0.599 | 0.257 | 0.421 | 0.983 | 0.605 | 0.422 | 0.616 | 0.826 | 0.477
3 | HOP-62 | 0.685 | 0.652 | 0.457 | 0.242 | 0.344 | 0.368 | 0.321 | 0.24 | 1.05 | 0.921 | 0.866 | 0.502 | 0.663 | 0.402 | 0.892 | 1.01 | 0.843 | 0.946 | 0.687 | 0.406
4 | IA-LM | – | – | – | – | – | – | – | – | 0.855 | 0.734 | 0.387 | 0.143 | – | – | 0.756 | – | – | – | – | –
5 | LC-2-ad | 0.48 | 0.402 | 0.289 | 0.324 | 0.522 | 0.45 | 0.383 | 0.369 | 0.913 | 0.867 | 0.714 | 0.585 | 0.326 | 0.319 | 0.778 | 1.18 | 0.947 | 0.633 | 0.883 | 0.815
6 | LCLC-97TM1 | 1 | 0.728 | 0.547 | 0.301 | 0.21 | 0.223 | 0.166 | 0.179 | 0.285 | 0.253 | 0.192 | 0.12 | 0.793 | 0.2 | – | 0.781 | 0.693 | 0.615 | 0.393 | 0.263
7 | LCLC-103H | 0.45 | 0.435 | 0.446 | 0.444 | 0.467 | 0.412 | 0.3 | 0.4 | 1.06 | 0.905 | 0.828 | 0.819 | 0.545 | 0.48 | 0.861 | 0.98 | 0.698 | 1.03 | 0.83 | 0.785
8 | LK-2 | 0.25 | 0.344 | 0.155 | 0.257 | 0.148 | 0.182 | 0.185 | 0.159 | – | 1.06 | – | 0.543 | 0.244 | 0.22 | 1.21 | 0.197 | 0.198 | 0.193 | 0.182 | 0.183
9 | LOU-NH91 | 0.534 | 0.514 | 0.489 | 0.471 | 0.807 | 0.647 | 0.593 | 0.618 | 0.692 | 0.689 | 0.691 | 0.538 | 0.372 | 0.384 | – | 0.394 | 0.396 | 0.283 | 0.341 | 0.312
10 | LU99A | 0.505 | 0.562 | 0.252 | 0.199 | 0.25 | 0.246 | 0.244 | 0.22 | 0.423 | 0.38 | 0.209 | 0.175 | 0.261 | 0.269 | 0.574 | 0.3 | 0.249 | 0.209 | 0.336 | 0.172
11 | LXF-289 | 0.29 | 0.199 | 0.336 | 0.172 | 0.223 | 0.177 | 0.189 | 0.141 | 1.05 | 0.962 | 0.942 | 0.695 | 0.249 | 0.222 | 0.961 | 0.641 | 0.592 | 0.659 | 0.656 | 0.407
12 | NCI-H23 | 0.552 | 0.711 | 0.225 | 0.221 | 0.321 | 0.322 | 0.216 | 0.168 | 0.575 | 0.53 | 0.384 | 0.242 | – | – | 0.435 | 0.237 | 0.225 | 0.237 | 0.182 | 0.185
13 | NCI-H522 | 0.647 | 0.849 | 0.72 | 0.605 | 0.532 | 0.56 | 0.467 | 0.503 | – | – | – | – | 0.719 | 0.553 | – | 1.23 | 1.28 | 1.05 | 0.82 | 0.832
14 | NCI-H1299 | – | – | – | – | – | – | – | – | 1.11 | 1.03 | 1.11 | 0.708 | – | – | 1.05 | – | – | – | – | –
15 | NCI-H1563 | 0.417 | 0.47 | 0.411 | 0.449 | – | – | – | – | 0.86 | 0.84 | 0.917 | 0.874 | 0.506 | – | 0.897 | 0.522 | 0.555 | 0.488 | 0.508 | 0.465
16 | NCI-H1648 | – | – | – | – | 0.515 | 0.378 | 0.292 | 0.318 | – | – | – | – | – | 0.566 | – | – | – | – | – | –
17 | NCI-H1650 | 0.304 | 0.385 | 0.312 | 0.187 | 0.426 | 0.309 | 0.261 | 0.203 | – | – | – | – | – | – | – | 0.195 | 0.185 | – | 0.192 | 0.186
18 | NCI-H1703 | – | – | – | – | – | – | – | – | 0.303 | 0.401 | 0.444 | 0.294 | – | – | 0.303 | – | – | – | – | –
19 | NCI-H1792 | 0.894 | 0.679 | 0.729 | 0.326 | – | – | – | – | 0.799 | 0.631 | 0.628 | 0.202 | 0.572 | – | 0.649 | 0.419 | 0.351 | 0.216 | 0.417 | 0.225
20 | NCI-H2342 | 0.31 | 0.282 | 0.307 | 0.348 | 0.422 | 0.503 | 0.406 | 0.416 | – | – | – | – | 0.285 | 0.498 | – | 0.79 | 0.76 | 0.558 | 0.617 | 0.747
21 | SW 900 | 0.59 | 0.588 | 0.585 | 0.385 | 0.737 | 0.401 | 0.307 | 0.258 | – | – | – | – | 0.137 | 0.409 | – | 0.211 | 0.186 | 0.174 | 0.175 | 0.173
